Experiments:
[1] = test system: N-formyl peptide receptor; experiment: HL-60 differentiation: N-formyl peptide receptor expression (flow cytometry); format: cell-based; settings: compactin-treated cells
Experimental: HL-60 cells were maintained in stationary culture in RPMI 1640 medium (Gibco, Grand Island, NY) containing 10% fetal bovine serum at 37° C in an atmosphere of 95 air and 5% CO2. The cells (about 8×10^5 /ml) were differentiated into neutrophil-like cells by treatment with 1.3% DMSO for six days (Harris, et al., J. Leukocyte Biol. 37: 407-422 (1985)). The cells were treated with the indicated levels of compactin or lovastatin by addition of a 1,000-fold concentrated stock solution to the appropriate concentration on day 4 of differentiation. […]
Cell viability was determined by uptake of propidium iodide (537-059; Calbiochem-Behring Corp., La Jolla, CA), detected from the emission fluorescence at 625/35 nm using a DM560 dichronic mirror (Krishan, J. Cell. Biol. 66: 188-192 (1975)). Expression of N-formyl peptide receptor was determined using fluorescein-labeled N-CHONle-Leu-Phe-Nle-Tyr-Lys (Molecular Probes, Inc., Eugene, OR) essentially by the method of Sklar and Finney (Sklar and Finney, Cytometry 3: 161-165 (1982)). Specificity of ligand binding was determined in the presence of 4 mM unlabeled T-boc peptide. […]
HL-60 differentiation was assessed using two distinct markers: appearance of N-formyl peptide receptors and appearance of the CD14 antigen.

Rap1 = experiment: Metabolic labeling and immune precipitation of processed and unprocessed Rap1 in HL-60 cells; format: cell-based; settings: various concentrations
Experimental: Analysis of Rapl processing in HL-60 cells was performed by labeling cells (8×10^5 /ml) with 200μCi/ml ^35 S-Trans-label (ICN Biomedicals, Inc., Costa Mesa, CA) for 5 days during cell differentiation with 1.3% DMSO in Cys-Met-free medium containing 12% dialyzed fetal bovine serum. Various concentrations of compactin were included as indicated. Metabolically labeled cells were collected, washed once with isotonic NaCl, treated with 2.5 mM Hepes pH 7.5, 100 mM NaCl, 1 mM EDTA, 1 % Triton X-100, 2.5 μM PMSF, and 100U aprotonin. After a 15-minute incubation on ice, the cell lysates were pelleted in a microfuge for 2 minutes and then the supernatant was transferred to clean tubes containing 100 μl 4M NaCl, 5 μl 10% SDS, and 50 μl10% deoxycholate. The samples were boiled for two minutes, pelleted, and transferred to clean tubes containing 2 μl of the primary antibody, 142-24E05 (Chesa, et al., PNAS USA 84: 3234-3238 (1987); Bokoch, et al., J. Biol. Chem. 263: 16744-16749 (1988)). […]
In untreated cells, Rapl was present largely in the membrane fraction, with very little Rapl in the cytosol. […] Isoprenylation of Rapl was also assessed by metabolic labeling of the HL-60 cells with immune precipitation of Rap1, and analysis of the 22kD processed and 23kD unprocessed forms of Rap1 (Buss, et al., Mol. Cell, Biol. 11: 1523-1527 (1991)).

## CC[C@H](C)C(=O)O[C@H]1CCC=C2C=C[C@H](C)[C@H](CC[C@@H]3C[C@@H](O)CC(=O)O3)[C@H]21 [compactin]
[1]
  N-formyl peptide receptor expression: normal
Rap1
  22 kD processed form of Rap1: dose-dependent decrease
  23 kD unprocessed form of Rap1: proportional increase

Reference: patent publication US5244916A, “Inhibition of respiratory burst using posttranslational modification inhibitors” (The Scripps Research Institute, priority 1992, dated 1993)
